Reference: EP2264054A1, “Cloning, yeast expression, purification and biological activity of a truncated form of the soybean 7S globulin alfa ' subunit involved in Hep G2 cell cholesterol homeostasis” (Indena S.p.A., priority 2009, dated 2010)

Key:
HepG2 cells [1] = assay: Uptake of 125I-LDL by HepG2 cells; format: cell-based, human; conditions: 1.0 µmol/L
Description: Cell cultures. The established human hepatoma cell line (HepG2) was obtained from American Type Culture Collection (Rockville, MD). Eagle's minimum essential medium (MEM), fetal calf serum, trypsin-EDTA (1x), penicillin (10^5 U/L), streptomycin ([…]), tricine buffer (1 mmol/L, pH 7.4) and non-essential amino acid solutions (100x) were from GIBCO (Madison, WI). Petri dishes were from COSTAR (Cambridge, MA). Filters were from Millipore (Bedford, MA). The Protein Coomassie Plus Protein Assay kit was purchased from Pierce (Rockford, IL, USA). ^125Iodine, carrier free, in 100 mmol/L NaOH, was from Perkin Elmer Life Sciences (Boston, MA). Sephadex G25 columns (PD10) were from Pharmacia Biotech (Uppsala, Sweden). LDH and MTT kit were from Sigma Diagnostics (Milano-Italy). All other chemicals were of analytical grade from Merck (Darmstadt, Germany). […] Cell enzyme leakage was determined by measuring lactate dehydrogenase (LDH) activity, using a kinetic (LDH/LD) diagnostic kit (Sigma Diagnostics). […]
Uptake and degradation of ^125I-LDL. […] Specific uptake (binding + internalization) and degradation of ^l25I-LDL were evaluated as previously reported. […] Differences in cell uptake and degradation of LDL after cell incubation with tα' at different concentrations were determined by ANOVA followed by Dunnett's test. Values are expressed as means ± SD; P values < 0.05 were considered as statistically significant.

HepG2 cells [2] = assay: Degradation of 125I-LDL by HepG2 cells; format: cell-based, human; conditions: 1.0 µmol/L
Description: Cell cultures. […] Cells were grown in monolayers in 90 mm-diameter Petri dishes, and maintained at 37°C in a humidified atmosphere of 95% air, 5% CO2 in MEM supplemented with 10% fetal calf serum (FCS), non essential amino acid solution (1%, v/v), penicillin (10^5 U/L), streptomycin (0.1 g/L), tricine buffer (20 mmol/L, pH 7.4), NaHCO3 (24 mmol/L) and sodium pyruvate (0.11 g/L). For experiments designed to evaluate the LDL receptor modulation, cells were seeded in 35 mm plastic dishes (3-5 x 10^5 cells) and used just before reaching confluence. In all cell culture experiments, the medium was changed every 2-3 days. In order to assess cell viability, culture media from cells exposed to tα' at different concentrations were tested by methyltetrazolium salts (MTT) assay, essentially as described in ref. 9. Cell enzyme leakage was determined by measuring lactate dehydrogenase (LDH) activity, using a kinetic (LDH/LD) diagnostic kit (Sigma Diagnostics). […]
Uptake and degradation of ^125I-LDL. […] Specific uptake (binding + internalization) and degradation of ^l25I-LDL were evaluated as previously reported [2]. […] Differences in cell uptake and degradation of LDL after cell incubation with tα' at different concentrations were determined by ANOVA followed by Dunnett's test. Values are expressed as means ± SD; P values < 0.05 were considered as statistically significant.

LDL-R = conditions: Hep G2 cells exposed to the peptide at 100 µM; cited from earlier work
[3] = 24 h preincubation in MEM with 5% LPDS, then 125I-LDL 7.5 mg/L for 5 h, mean ± SD

Molecule	Uptake (HepG2 cells [1]; [3])	Uptake (HepG2 cells [1]; relative to LPDS = 100) [%]	Degradation (HepG2 cells [2]; [3])	Degradation (HepG2 cells [2]; relative to LPDS = 100) [%]	increased LDL-R transcription (LDL-R)
CCC(C)(C)C(=O)O[C@H]1C[C@@H](C)C=C2C=C[C@H](C)[C@H](CC[C@@H]3C[C@@H](O)CC(=O)O3)[C@H]21 [Simvastatin]	250 ± 11.2 ng125I-LDL/ mg cell proteins	278	195 ± 7.9 ng125I-LDL/ mg cell protein	250	
FVVNATSN [LDL-R transcription stimulating peptide deriving from the 7S globulin β chain, from a soybean hydrolysate and by chemical synthesis]					+148%
